Calls of active or inactive are those of the source. The rule behind the calls is not given here.
Legend:
Acanthamoeba polyphaga [1] = test: Amoebicidal activity against Trophozoites of Acanthamoeba polyphaga 5SU assessed as rounding of cells at 55 mM in phosphate buffered saline at pH 7 after 15 mins by hemocytometer using trypan blue stain in presence of 190 mM ammonium chloride; format: functional, organism-based
Acanthamoeba hatchetti [2] = test: Amoebicidal activity against Trophozoites of Acanthamoeba hatchetti 11DS at 55 mM in phosphate buffered saline at pH 7 after 1 hr by hemocytometer using trypan blue staining in presence of 190 mM ammonium chloride; format: functional, organism-based
Acanthamoeba hatchetti [3] = test: Amoebicidal activity against Trophozoites of Acanthamoeba hatchetti 11DS assessed as log reduction in cell count at 10 mM in phosphate buffered saline at pH 5 after 24 hrs by hemocytometer using trypan blue stain; format: functional, organism-based
Acanthamoeba hatchetti [4] = test: Amoebicidal activity against Trophozoites of Acanthamoeba hatchetti 11DS assessed as reduction of killing time at 10 mM in phosphate buffered saline at pH 5 by hemocytometer using trypan blue stain in presence of 34 mM ammonium chloride; format: functional, organism-based
Acanthamoeba polyphaga [5] = test: Amoebicidal activity against Trophozoites of Acanthamoeba polyphaga 5SU assessed as log reduction in cell count at 10 mM in phosphate buffered saline at pH 5 after 6 hrs by hemocytometer using trypan blue stain; format: functional, organism-based
Acanthamoeba hatchetti [6] = test: Amoebicidal activity against Trophozoites of Acanthamoeba hatchetti 11DS assessed as rounding of the cells at 0.16 M in peptone yeast extract glucose medium at pH 7 by hemocytometer using trypan blue stain; format: functional, organism-based
Acanthamoeba hatchetti [7] = test: Amoebicidal activity against Trophozoites of Acanthamoeba hatchetti 11DS assessed as log reduction in cell count at 20 mM in peptone yeast extract glucose medium at pH 7 after 6 hrs by hemocytometer using trypan blue stain; format: functional, organism-based
Acanthamoeba castellanii [8] = test: Amoebicidal activity against Trophozoites of Acanthamoeba castellanii 40AB assessed as killing time at 20 mM in peptone yeast extract glucose medium at pH 7 by hemocytometer using trypan blue stain; format: functional
Acanthamoeba castellanii [9] = test: Amoebicidal activity against Trophozoites of Acanthamoeba castellanii 4CL assessed as log reduction in cell count at 10 mM in phosphate buffered saline at pH 7 after 6 hrs by hemocytometer using trypan blue stain; format: functional
Acanthamoeba castellanii [10] = test: Amoebicidal activity against Trophozoites of Acanthamoeba castellanii 4CL assessed as killing time at 10 mM in phosphate buffered saline at pH 7 by hemocytometer using trypan blue stain; format: functional
Acanthamoeba castellanii [11] = test: Amoebicidal activity against Trophozoites of Acanthamoeba castellanii 40AB assessed as killing time at 10 mM in phosphate buffered saline at pH 7 by hemocytometer using trypan blue stain; format: functional
Acanthamoeba hatchetti [12] = test: Amoebicidal activity against Trophozoites of Acanthamoeba hatchetti 11DS assessed as log reduction in cell count at 20 mM in peptone yeast extract glucose medium at pH 7 after 24 hrs by hemocytometer using trypan blue stain; format: functional
Acanthamoeba polyphaga [13] = test: Amoebicidal activity against Trophozoites of Acanthamoeba polyphaga 5SU assessed as log reduction in cell count at 20 mM in peptone yeast extract glucose medium at pH 7 after 24 hrs by hemocytometer using trypan blue stain; format: functional
Acanthamoeba castellanii [14] = test: Amoebicidal activity against Trophozoites of Acanthamoeba castellanii 4CL assessed as log reduction in cell count at 20 mM in peptone yeast extract glucose medium at pH 7 after 24 hrs by hemocytometer using trypan blue stain; format: functional
Acanthamoeba hatchetti [15] = test: Amoebicidal activity against Trophozoites of Acanthamoeba hatchetti 11DS assessed as increase in reduction in cell count at 20 mM in peptone yeast extract glucose medium at pH 7 after 6 hrs by hemocytometer using trypan blue stain in presence of 68 mM ammonium chloride; format: functional, organism-based
Acanthamoeba polyphaga [16] = test: Amoebicidal activity against Trophozoites of Acanthamoeba polyphaga 5SU in phosphate buffered saline at pH 7 after 1 hr by hemocytometer using trypan blue stain; format: functional, organism-based
Acanthamoeba polyphaga [17] = test: Amoebicidal activity against Trophozoites of Acanthamoeba polyphaga 5SU in peptone yeast extract glucose medium at pH 7 after 1 hr by hemocytometer using trypan blue stain; format: functional, organism-based
Acanthamoeba hatchetti [18] = test: Amoebicidal activity against Trophozoites of Acanthamoeba hatchetti 11DS in phosphate buffered saline at pH 7 after 6 hrs by hemocytometer using trypan blue stain; format: functional, organism-based
Acanthamoeba hatchetti [19] = test: Amoebicidal activity against Trophozoites of Acanthamoeba hatchetti 11DS in phosphate buffered saline at pH 7 after 6 hrs by hemocytometer using trypan blue stain in presence of 34 mM ammonium chloride; format: functional, organism-based
Acanthamoeba hatchetti [20] = test: Amoebicidal activity against Trophozoites of Acanthamoeba hatchetti 11DS in phosphate buffered saline at pH 7 after 24 hrs by hemocytometer using trypan blue stain in presence of 34 mM ammonium chloride; format: functional, organism-based
Acanthamoeba polyphaga [21] = test: Amoebicidal activity against Trophozoites of Acanthamoeba polyphaga 5SU in peptone yeast extract glucose medium at pH 7 after 24 hrs by hemocytometer using trypan blue stain in presence of 68 mM ammonium chloride; format: functional, organism-based
Acanthamoeba castellanii [22] = test: Amoebicidal activity against excysted trophozoites of Acanthamoeba castellanii 40AB at 55 mM in peptone yeast extract glucose medium after 24 hrs by hemocytometer using trypan blue stain; format: functional
Acanthamoeba hatchetti [23] = test: Amoebicidal activity against excysted trophozoites of Acanthamoeba hatchetti 11DS at 55 mM in peptone yeast extract glucose medium after 24 hrs by hemocytometer using trypan blue stain; format: functional
Acanthamoeba castellanii [24] = test: Amoebicidal activity against excysted trophozoites of Acanthamoeba castellanii 4CL at 55 mM in peptone yeast extract glucose medium after 4 days by hemocytometer using trypan blue stain; format: functional
Acanthamoeba hatchetti [25] = test: Amoebicidal activity against excysted trophozoites of Acanthamoeba hatchetti 11DS at 55 mM in peptone yeast extract glucose medium after 4 days by hemocytometer using trypan blue stain; format: functional
Acanthamoeba castellanii [26] = test: Amoebicidal activity against excysted trophozoites of Acanthamoeba castellanii 4CL at 55 mM in peptone yeast extract glucose medium after 6 days by hemocytometer using trypan blue stain; format: functional
Acanthamoeba polyphaga [27] = test: Amoebicidal activity against excysted trophozoites of Acanthamoeba polyphaga 5SU at 55 mM in peptone yeast extract glucose medium after 6 days by hemocytometer using trypan blue stain; format: functional
Acanthamoeba castellanii [28] = test: Amoebicidal activity against excysted trophozoites of Acanthamoeba castellanii 4CL at 55 mM in peptone yeast extract glucose medium after 11 days by hemocytometer using trypan blue stain; format: functional
Acanthamoeba castellanii [29] = test: Amoebicidal activity against excysted trophozoites of Acanthamoeba castellanii 40AB at 55 mM in peptone yeast extract glucose medium after 11 days by hemocytometer using trypan blue stain; format: functional
Acanthamoeba hatchetti [30] = test: Amoebicidal activity against excysted trophozoites of Acanthamoeba hatchetti 11DS at 55 mM in peptone yeast extract glucose medium after 11 days by hemocytometer using trypan blue stain; format: functional
Acanthamoeba hatchetti [31] = test: Amoebicidal activity against Trophozoites of Acanthamoeba hatchetti 11DS assessed as complete loss of viability at 55 mM in phosphate buffered saline after 24 hrs by hemocytometer using trypan blue stain in presence of 190 mM ammonium chloride; format: functional, organism-based
Acanthamoeba polyphaga [32] = test: Amoebicidal activity against Trophozoites of Acanthamoeba polyphaga 5SU assessed as log reduction in cell count at 10 mM in phosphate buffered saline at pH 7 after 6 hrs by hemocytometer using trypan blue staining; format: functional, organism-based
Acanthamoeba hatchetti [33] = test: Amoebicidal activity against Trophozoites of Acanthamoeba hatchetti 11DS assessed as log reduction in cell count at 10 mM in phosphate buffered saline at pH 7 after 6 hrs by hemocytometer using trypan blue stain; format: functional
Acanthamoeba polyphaga [34] = test: Amoebicidal activity against Trophozoites of Acanthamoeba polyphaga 5SU assessed as log reduction in cell count at 10 mM in phosphate buffered saline at pH 7 after 6 hrs by hemocytometer using trypan blue stain; format: functional

In the case of `O=S(=O)(O)CCNCl`, the Activity (Acanthamoeba polyphaga [1]) is reported as “Active”, the Activity (Acanthamoeba hatchetti [2]) is reported as “inactive” and the Activity (Acanthamoeba hatchetti [3]) is reported as “Active”. The Activity (Acanthamoeba hatchetti [4]) was “inactive”, the Activity (Acanthamoeba polyphaga [5]) was “Active” and the Activity (Acanthamoeba hatchetti [6]) was “Active”. For the same compound, the Activity (Acanthamoeba hatchetti [7]) was “Active”, the Activity (Acanthamoeba castellanii [8]) was 36 h and the Activity (Acanthamoeba castellanii [9]) was 2. For the same compound, the Activity (Acanthamoeba castellanii [10]) was 36 h, the Activity (Acanthamoeba castellanii [11]) was 30 h and the Activity (Acanthamoeba hatchetti [12]) was 2. The Activity (Acanthamoeba polyphaga [13]) was 2, the Activity (Acanthamoeba castellanii [14]) was 2 and the Activity (Acanthamoeba hatchetti [15]) was “Active”. The EC50 (Acanthamoeba polyphaga [16]) was 29.3 mM, the EC50 (Acanthamoeba polyphaga [17]) was 23.1 mM and the EC50 (Acanthamoeba hatchetti [18]) was 3.89 mM. It also gave an EC90 (Acanthamoeba hatchetti [18]) of 7.71 mM, an EC50 (Acanthamoeba hatchetti [19]) of 5.19 mM and an EC90 (Acanthamoeba hatchetti [19]) of 9.13 mM. It also gave an EC50 (Acanthamoeba hatchetti [20]) of 5.11 mM, an EC90 (Acanthamoeba hatchetti [20]) of 9.13 mM and an EC50 (Acanthamoeba polyphaga [21]) of 10.2 mM. It also gave an Activity (Acanthamoeba castellanii [22]) of 0, an Activity (Acanthamoeba hatchetti [23]) of 4600 and an Activity (Acanthamoeba castellanii [24]) of 2000. It also gave an Activity (Acanthamoeba hatchetti [25]) of 100000, an Activity (Acanthamoeba castellanii [26]) of 7200 and an Activity (Acanthamoeba polyphaga [27]) of 18000. The Activity (Acanthamoeba castellanii [28]) was 100000, the Activity (Acanthamoeba castellanii [29]) was 130000 and the Activity (Acanthamoeba hatchetti [30]) was 410000. For the same compound, the Activity (Acanthamoeba hatchetti [31]) was “Active”, the Activity (Acanthamoeba polyphaga [32]) was “Active” and the Activity (Acanthamoeba hatchetti [33]) was 2. For the same compound, the Activity (Acanthamoeba polyphaga [34]) was 2.

From ChEMBL document CHEMBL1151469, “Cytotoxic activity of N-chlorotaurine on Acanthamoeba spp” (Antimicrob Agents Chemother, 2008)
